# Legend:
# [1] = molecular target: T1, purified NUDT5 (Homo sapiens, UniProt Q9UKK9); assay: biochemical conversion of 32P-PAR to ATP and AMP by PARG and NUDT5 (TLC); details: 0.6 µM, with NUDT5, PARG and PPi
# T1 construct: His-tag (N); made in house; host or cells: E. coli BL21 (DE3) R3 pRARE2
# Experimental: ^32P-NAD-labeled PAR was prepared as follows: 5 µg of purified GST-PARP1 was incubated with 2 µg of activated calf thymus DNA and 10 mM NAD +/^32P-NAD (Perkin-Elmer) at a ratio of 1:10 for 30 min at 25 °C and brought to a final volume of 100 µL with PARP reaction buffer (50 mM Tris, pH 7.5, 50 mM NaCl, 0.5 mM DTT, 0.1% Triton X-100 and protease inhibitors)[23]. After incubation, 0.4 µg of DNase was added to obtain DNA-free probes and the reaction was precipitated using TCA. The pellet was washed with acetone, dried and resuspended in 100 µl (10 mM Tris-HCl, pH 8.0, 1 mM EDTA, 0.1 % SDS, 100 µg/mL of Proteinase K) and incubated for 1 h at 37 °C, after which radio-labeled PAR was extracted using phenol/chloroform and ethanol precipitation. The pellet was resuspended in 50 µL (10 mM Tris-HCl, pH 8.0, 1 mM EDTA) and used for subsequent biochemical analyses.
# Enzymatic conversion of radiolabeled ^32P-PAR by PARG and NUDT5 was performed using purified radio-labeled PAR (as described above) with the addition of recombinant bovine PARG in PAR glycohydroxylation buffer (PGB; 10 mM HEPES, pH 7.5, 150 mM KCl, 10 mM MgCl2)[23]. Recombinant PARG was added at the beginning of the reaction to a 10 µL final volume and incubated for 1 h at 25 °C. Recombinant NUDT5, pyrophosphate and/or TH5427 (0.6 µM) were added as indicated and incubated for an additional hour. […]
# [2] = tested on: T47D^M cells; assay: progesterone-dependent gene expression by RT-qPCR; assay type: cell-based; details: 1.5 µM, 6 h R5020
# Experimental: For hormone and inhibitor treatments, normal T47D^WT cells or cells containing a single copy of luciferase under the control of the mouse mammary tumor virus (MMTV) promoter (T47D^M) were used[23]. Prior to hormone induction, cells were grown in phenol red-free RPMI medium supplemented with 10% dextran-coated charcoal-treated FBS (DCC/FBS). After 16 h in serum-free conditions, cells were pre-incubated with DMSO (vehicle) or NUDT5 inhibitor for 2 h at the indicated dose before addition of R5020 (10 nM) or vehicle (ethanol, EtOH) for the allotted time.
# Total RNA and cDNA were prepared using an RNeasy Plus kit (Qiagen) and Superscript II kit (Invitrogen), respectively, according to the manufacturers’ instructions. Quantification of mRNA abundance of specific gene products was performed by RT-qPCR (LightCycler FastStart DNA Master SYBR Green I), normalized to GAPDH and expressed as relative RNA abundance over time zero (no R5020 treatment). Primer sequences are available upon request.
# [3] = tested on: U-2 OS cells; assay: DNA damage signaling by immunofluorescence (γH2A.X, 53BP1, RPA); assay type: cell-based; details: 10 µM, 72 h
# Experimental: Following siRNA knockdown for 48 h, 10 000 U-2 OS cells were seeded per well in black, clear-bottomed 96-well plates (BD Falcon) and allowed to grow for an additional 48 h. For inhibitor treatment experiments, cells were plated at 2000 per well and 10 µM TH5427 was added the following day for an additional 72 h. Cells were washed with PBS and then fixed with 4% paraformaldehyde in PBS (Santa Cruz) with 0.5% Triton X-100 for 15 min. Primary antibodies were γH2A.X (Millipore, 1:1000 or Cell Signaling, 1:1000), 53BP1 (Bethyl, 1:1000 or Abcam, 1:500) and RPA32 (Cell Signaling, 1:1000) diluted in 3% BSA/PBS and incubated at 4 °C overnight. Alexa Fluor secondary antibodies (ThermoFisher) were used at 1:1000 diluted in 3% BSA/PBS for 1 h at room temperature. DNA was counterstained with DAPI and plates were visualized using an ImageXpress high-throughput microscope (Molecular Devices) with 20x objective. Image analysis was performed with CellProfiler software (Broad Institute).
# [4] = tested on: U-2 OS cells; assay: modified alkaline comet assay (OGG1-specific lesions); assay type: cell-based; details: 10 µM, 24 or 72 h
# Experimental: The modified comet assay was used to determine relative amounts of OGG1-specific substrates (e.g., 8-oxo-dG) within cellular DNA[9]. U-2 OS cells were transfected with siRNA for 72 h and/or treated with DMSO/500 nM TH1579 for 24 h prior to harvesting by trypsinization. For experiments with TH5427, cells were treated for 24 or 72 h with 10 µM compound.
# In brief, 120 µL of 1% agarose in PBS was added to one end of a fully-frosted microscope slide (ThermoFisher Scientific) and protected with a 24 × 40 mm coverslip to form the first layer. Once solidified at 4 °C, the second layer was made by mixing 400 µL of 1.2% low-melting agarose in PBS with 100 µL of a 1 × 10^6 cells/mL suspension in PBS kept at 37 °C. The coverslip was removed and 80 µL was added on top of the first layer, spread with a coverslip, and left to solidify at 4 °C for 5–10 minutes. Two slides were made for each condition. […]
# The slides were visualized using a 10x objective and a Zeiss LSM 780 confocal or Zeiss Axiovert 35 microscope. Comets were analyzed with OpenComet (www.cometbio.org/) or Comet Assay IV (http://www.perceptive.co.uk/products/comet-assay-iv/) software and the tail moments (tail length x percent DNA in the tail) were automatically calculated. […] At least 100 cells were analyzed for each condition per replicate.
smiles,measurement,setting,value
Cn1c(=O)c2c(nc(N3CCNCC3)n2Cc2nnc(-c3ccc(Cl)c(Cl)c3)o2)n(C)c1=O [TH5427],synthesis of ATP and AMP from 32P-PAR,[1],inhibited the biochemical synthesis of ATP and AMP from ^32P-PAR
same,"progestin-dependent gene expression, EGFR and MMTV-luc",[2],significantly disrupted EGFR and MMTV-luc expression
same,"progestin-independent gene expression, CCNB1 and RBM24",[2],did not affect the expression of CCNB1 or RBM24
same,DNA damage signaling,[3],neither induced significant DNA damage signaling
same,OGG1-specific DNA lesions,[4],nor increased OGG1-specific DNA lesions

# Source: article PMC5772648, “Targeted NUDT5 inhibitors block hormone signaling in breast cancer cells” (Nature Communications, 2018)
